Experimental data from patent US4371540A, “Nitroimidazoles of low toxicity and high activity as radiosensitizers of hypoxic tumor cells” (priority 1980, dated 1983).
Values after ≈ are worked out from the molar mass of the structure shown.

Experiments:
[1] = 1-electron reduction potential / electron affinity; format: physicochemical; conditions: for E7^1 (1-electron reduction potential): Table 1; for electron affinity relative to MIS: in words
in vivo [2] = conditions: mouse
physchem [3] = conditions: octanol:water
tumors in vivo = tumors in vivo and cells; Brown and Lee, 1979; cited from earlier work
BALB/c mice = conditions: for acute toxicity relative to MIS: from LD50 data of Table 1
hypoxic tumor cells = conditions: cited from earlier work
[4] = accelerated rotarod neurotoxicity test; conditions: for Dose to Give Equivalent Neurotoxicity Relative to MIS: daily dosing, MIS = 1; for factor by which less neurotoxic than MIS: at least a factor of
Text: Performance and toxicity determinations were made after four-and-one-half weeks of daily dosing.

[5] = peak tumor concentration in dogs bearing spontaneous tumors; conditions: for Mean Peak Tumor Concentration: dogs with spontaneous tumors, i.v. bolus 0.5 micromoles/g
[6] = plasma pharmacokinetics and neural tissue exposure (AUC) in dogs; conditions: for AUC / clearance: dog; for AUC: 500 umol/kg; for AUC PNS: peripheral nerve
Experimental: (§1) The imidazoles were formulated in a 0.9% sodium chloride solution at a concentration of 5%. Doses of 0.25-1.0 mmole/kg of each compound were administered to normal adult, male cross-bred dogs and subsequent plasma concentrations were monitored by high performance liquid chromatography. Samples of brain, cerebrospinal fluid (CSF), and peripheral nerve (PNS) were removed for assay from similarly dosed dogs over the same test period.

[7] = method of Fujita et al
[8] = for tumor/brain ratio relative to MIS: i.p., EMT6 tumor bearing mice, FIGS. 1 and 2; for crossing of the blood/brain barrier relative to MIS: in words
Experimental: Each test compound was formulated immediately before administration to the animals in Hanks' balanced salt solution at a concentration such that the volume injected intraperitoneally was 0.05 ml per g body weight.
The mice were injected intraperitoneally and at various times were bled by cardiac puncture under anesthesia. Plasma was obtained by centrifugation and stored frozen at -20° C. The tumor and whole brain were taken immediately after cardiac puncture and stored frozen at -20° C.
The brain/plasma ratio is the mean value from all the mice for each compound.

in vivo [9] = conditions: dog
Experimental: as §1

physchem [10] = conditions: 0.9% saline
EMT6 tumor cells = experiment: radiosensitization of EMT6 tumor cells; conditions: in words
[11] = plasma concentration after oral administration of acetate esters versus parent drugs; format: in vivo; conditions: mice, 4 or 5 mmole/kg
[12] = dogs, standardized for 0.5 mmole/kg

## O=[N+]([O-])c1nccn1CCN1CCOCC1
[1]
  E7^1 (1-electron reduction potential): -390 mV
In vivo [2]
  LD50: ~900 mg/kg
Physchem [3]
  logP: -0.0862

## O=[N+]([O-])c1nccn1CC(O)CCl (stereo not shown) [Compound 1]
[1]
  E7^1 (1-electron reduction potential): -384 mV
In vivo [2]
  LD50: ~180 mg/kg
Physchem [3]
  logP: 0.176

## CCOCC(O)Cn1ccnc1[N+](=O)[O-] (stereo not shown) [Compound 2]
[1]
  E7^1 (1-electron reduction potential): -391 mV
In vivo [2]
  LD50: > 1100 mg/kg
Physchem [3]
  logP: 0.104

## O=[N+]([O-])c1nccn1CC(O)CF (stereo not shown) [Compound 4]
[1]
  E7^1 (1-electron reduction potential): -383 mV
In vivo [2]
  LD50: ~900 mg/kg
Physchem [3]
  logP: -0.357

## O=[N+]([O-])c1nccn1CC(O)CO (stereo not shown) [Compound 6]
[1]
  E7^1 (1-electron reduction potential): -389 mV
In vivo [2]
  LD50: 3100 mg/kg
Physchem [3]
  logP: -0.886

## C[S+]([O-])CCn1ccnc1[N+](=O)[O-] (stereo not shown) [Compound 7]
In vivo [2]
  LD50: ~2000 mg/kg
Physchem [3]
  logP: -1.22

## O=C(Cn1ccnc1[N+](=O)[O-])NCC(O)CO (stereo not shown) [Compound 10]
[1]
  E7^1 (1-electron reduction potential): -392 mV
Tumors in vivo
  radiosensitizing activity relative to MIS: significantly inferior to MIS
In vivo [2]
  LD50: > 6100 mg/kg
Physchem [3]
  logP: -1.85

## COCC(O)Cn1ccnc1[N+](=O)[O-] (stereo not shown) [MIS, misonidazole, reference compound]
[1]
  E7^1 (1-electron reduction potential): -389 mV
BALB/c mice; BALB/c mice (20-25 g)
  Acute LD50: 1.8(1.3-2.6) mg/g
Hypoxic tumor cells; conventional multifraction radiotherapy regime
  radiosensitization at recommended dose: suboptimal radiosensitization
Hypoxic tumor cells; in words
  radiosensitizing activity relative to metronidazole: greater radiosensitizing activity of the two compounds
Hypoxic tumor cells; man, in words
  clinical limitation by toxicity: limited by its neurotoxicity
Hypoxic tumor cells; man, per body surface, Dische et al
  recommended maximum total dose (neurotoxicity): ≤ 12 g/m^2
[4]; four-and-one-half weeks
  Dose to Give Equivalent Neurotoxicity Relative to MIS: 1
[5]
  Mean Peak Tumor Concentration: 0.56 μ moles.g^-1
[6]; cerebrospinal fluid
  AUC: 2660 µM·h
[6]; plasma
  clearance: 1.5 mL/min/kg
  AUC: 3680 µM·h
[6]; [12]
  AUC PNS: 2.25 μ moles.hr.ml^ -1 or g^-1
  AUC Brain: 2.32 μ moles.hr.ml^ -1 or g^-1

## O=C(Cn1ccnc1[N+](=O)[O-])NCCO [SR-2508, N-(2-hydroxyethyl)-2-(2-nitro-1-imidazolyl)acetamide]
[1]
  E7^1 (1-electron reduction potential): -388 mV
  electron affinity relative to MIS: similar
[7]
  octanol:water partition coefficient: 0.046
BALB/c mice
  acute toxicity relative to MIS: about three to five times less
[8]
  tumor/brain ratio relative to MIS: an order of magnitude greater than MIS
  crossing of the blood/brain barrier relative to MIS: to a lower degree than does MIS
In vivo [2]
  LD50: 4900 mg/kg
In vivo [9]
  clearance: 3.5 mL/min/kg
Physchem [3]
  logP: -1.34
Physchem [10]
  solubility: ~200 mg/mL (≈ 934 mM)
EMT6 tumor cells
  radiosensitizing efficiency relative to MIS: comparable radiosensitizing activity
[4]
  factor by which less neurotoxic than MIS: 3-5
[4]; four-and-one-half weeks
  Dose to Give Equivalent Neurotoxicity Relative to MIS: > 3.3

## O=C(Cn1ccnc1[N+](=O)[O-])N(CCO)CCO [SR-2555, N,N-di-(2-hydroxyethyl)-2-(2-nitro-1-imidazolyl)acetamide]
[1]
  E7^1 (1-electron reduction potential): -398 mV
  electron affinity relative to MIS: similar
[7]
  octanol:water partition coefficient: 0.026
BALB/c mice
  acute toxicity relative to MIS: about three to five times less
[8]
  tumor/brain ratio relative to MIS: an order of magnitude greater than MIS
  crossing of the blood/brain barrier relative to MIS: to a lower degree than does MIS
In vivo [2]
  LD50: > 7700 mg/kg
Physchem [3]
  logP: -1.59
Physchem [10]
  solubility: > 300 mg/mL
EMT6 tumor cells
  radiosensitizing efficiency relative to MIS: comparable radiosensitizing activity
[4]
  factor by which less neurotoxic than MIS: 3-5
[4]; daily dose 3.0 mg/g, four-and-one-half weeks
  Performance Relative to Controls: 1.07 ± 0.16
[4]; four-and-one-half weeks
  Dose to Give Equivalent Neurotoxicity Relative to MIS: > 5
[5]
  Mean Peak Tumor Concentration: 1.30 μ moles.g^-1
[5]; dogs, i.v. bolus, in words
  peak tumor concentration relative to MIS: considerably higher than MIS
  time of peak tumor concentration relative to MIS: considerably earlier than MIS
[6]; cerebrospinal fluid, AUC CSF, dogs, standardized for 0.5 mmole/kg
  AUC: 170 µM·h
[6]; plasma
  clearance: 4.33 mL/min/kg
[6]; plasma, AUC Plasma, dogs, standardized for 0.5 mmole/kg
  AUC: 1620 µM·h
[6]; dogs, in words
  clearance rate relative to MIS: considerably more rapid than for MIS
  penetration into brain, CSF and peripheral nerves relative to MIS: considerably lower
  total exposure of neural tissues (AUC) relative to MIS: significantly smaller than for MIS
[6]; [12]
  AUC PNS: 0.75 μ moles.hr.ml^ -1 or g^-1
  AUC Brain: 0.51 μ moles.hr.ml^ -1 or g^-1

## CC(=O)OCCNC(=O)Cn1ccnc1[N+](=O)[O-] [acetate ester of SR-2508]
[11]
  peak plasma concentration of SR-2508 or SR-2555 after oral ester relative to oral parent drug: significantly higher

## COC(=O)Cn1ccnc1[N+](=O)[O-] [methyl 2-nitroimidazole-1-acetate]
Physchem [10]
  solubility: 13.6 mg/mL (≈ 73.5 mM)
